Data: US10118916B2, “Modulators of cystic fibrosis transmembrane conductance regulator protein” (AbbVie S.à.r.l., priority 2016, dated 2018)

Target: T1, F508delCFTR (Homo sapiens, UniProt P13569, DEL508-508)
T1 construct: expressed in transfected cells; host or cells: CFBE41o- (human lung derived epithelial cell line), doxycycline-inducible
Test: Cell Surface Expression-Horse Radish Peroxidase (CSE-HRP) assay
Assay type: cell-based
Details: CFBE41o-F508delCFTR-HRP cells; for EC50: F508delCFTR cell surface expression, luminescence, 18-24 hours at 33° C., highest concentration 20 μM; for Maximum % activity: maximum at any tested concentration, normalized to on-plate positive control (3 μM)
Excerpt: Cell Surface Expression-Horse Radish Peroxidase (CSE-HRP) Assay:
A cellular assay for measuring the F508delCFTR cell surface expression after correction with test compounds was developed in human lung derived epithelial cell line (CFBE41o-) (Veit G et al, (2012) Mol Biol Cell. 23(21): 4188-4202). This was achieved by expressing the F508delCFTR mutation along with a horseradish peroxidase (HRP) in the fourth exofacial loop and then measuring the HRP activity using luminescence readout from these cells, CFBE41o-F508delCFTR-HRP, that were incubated overnight with the test corrector compounds. Briefly, for this primary assay, the CFBE41o-F508delCFTR-HRP cells were plated in 384-well plates (Greiner Bio-one; Cat 781080) at 4,000 cells/well along with 0.5 μg/mL doxycycline to induce the F508delCFTR-HRP expression and further incubated at 37° C., 5% CO2 for 72 hours. The test compounds were then added at the required concentrations and further incubated for 18-24 hours at 33° C. The highest concentration tested was 20 μM with an 8-point concentration response curve using a 3-fold dilution. Three replicate plates were run to determine one EC50. All plates contained negative controls (dimethyl sulfoxide, DMSO) and positive controls (3 μM of 3-[(2R,4R)-4-({[1-(2,2-difluoro-1,3-benzodioxol-5-yl)cyclopropyl]carbonyl}amino)-7-methoxy-3,4-dihydro-2H-chromen-2-yl]benzoic acid) as well as on-plate concentration response of the positive control. Post incubation, the plates were washed 5× times with Dulbecco's phosphate buffered saline (DPBS), followed by the addition of the HRP substrate, luminol (50 μL), and measuring the HRP activity using luminescence readout on EnVision® Multilabel Plate Reader (Perkin Elmer; product number 2104-0010). The raw counts from the experiment are analyzed using Accelrys® Assay Explorer v3.3.
Z′ greater than 0.5 was used as passing quality control criteria for the plates.
The Z′ is defined as: 1−[3*SDPositive Control+3*SDNegative Control/Absolute(MeanPositive Control−MeanNegative Control)] wherein “SD” is standard deviation.
The % activity measured at each of the 8 test concentrations of the test compound was normalized to the on-plate positive control using the following formula: % activity=[(test compound response−DMSO response)/(positive control response−DMSO response)]*100
The maximum % activity achieved for the test compound at any tested concentration is presented in Table 1 along with the EC50 calculated using the following general sigmoidal curve with variable Hill slope equation (described as Model 42 in the Accelrys® Assay Explorer v3.3 software): y=(a−d)/(1+(x/c)^b)+d
General sigmoidal curve with concentration, response, top, bottom, EC50 and Hill slope.
This model describes a sigmoidal curve with an adjustable baseline, a. The equation can be used to fit curves where response is either increasing or decreasing with respect to the independent variable, “x”. • “x” is a concentration of drug under test. • “y” is the response. • “a” is the maximum response, and “d” is the minimum response • “c” is the inflection point (EC50) for the curve. That is, “y” is halfway between the lower and upper asymptotes when x=c. • “b” is the slope-factor or Hill coefficient. The sign of b is positive when the response increases with increasing dose and is negative when the response decreases with increasing dose (inhibition).

T1 sequence (P13569 with tags, fused parts or gaps DEL508-508): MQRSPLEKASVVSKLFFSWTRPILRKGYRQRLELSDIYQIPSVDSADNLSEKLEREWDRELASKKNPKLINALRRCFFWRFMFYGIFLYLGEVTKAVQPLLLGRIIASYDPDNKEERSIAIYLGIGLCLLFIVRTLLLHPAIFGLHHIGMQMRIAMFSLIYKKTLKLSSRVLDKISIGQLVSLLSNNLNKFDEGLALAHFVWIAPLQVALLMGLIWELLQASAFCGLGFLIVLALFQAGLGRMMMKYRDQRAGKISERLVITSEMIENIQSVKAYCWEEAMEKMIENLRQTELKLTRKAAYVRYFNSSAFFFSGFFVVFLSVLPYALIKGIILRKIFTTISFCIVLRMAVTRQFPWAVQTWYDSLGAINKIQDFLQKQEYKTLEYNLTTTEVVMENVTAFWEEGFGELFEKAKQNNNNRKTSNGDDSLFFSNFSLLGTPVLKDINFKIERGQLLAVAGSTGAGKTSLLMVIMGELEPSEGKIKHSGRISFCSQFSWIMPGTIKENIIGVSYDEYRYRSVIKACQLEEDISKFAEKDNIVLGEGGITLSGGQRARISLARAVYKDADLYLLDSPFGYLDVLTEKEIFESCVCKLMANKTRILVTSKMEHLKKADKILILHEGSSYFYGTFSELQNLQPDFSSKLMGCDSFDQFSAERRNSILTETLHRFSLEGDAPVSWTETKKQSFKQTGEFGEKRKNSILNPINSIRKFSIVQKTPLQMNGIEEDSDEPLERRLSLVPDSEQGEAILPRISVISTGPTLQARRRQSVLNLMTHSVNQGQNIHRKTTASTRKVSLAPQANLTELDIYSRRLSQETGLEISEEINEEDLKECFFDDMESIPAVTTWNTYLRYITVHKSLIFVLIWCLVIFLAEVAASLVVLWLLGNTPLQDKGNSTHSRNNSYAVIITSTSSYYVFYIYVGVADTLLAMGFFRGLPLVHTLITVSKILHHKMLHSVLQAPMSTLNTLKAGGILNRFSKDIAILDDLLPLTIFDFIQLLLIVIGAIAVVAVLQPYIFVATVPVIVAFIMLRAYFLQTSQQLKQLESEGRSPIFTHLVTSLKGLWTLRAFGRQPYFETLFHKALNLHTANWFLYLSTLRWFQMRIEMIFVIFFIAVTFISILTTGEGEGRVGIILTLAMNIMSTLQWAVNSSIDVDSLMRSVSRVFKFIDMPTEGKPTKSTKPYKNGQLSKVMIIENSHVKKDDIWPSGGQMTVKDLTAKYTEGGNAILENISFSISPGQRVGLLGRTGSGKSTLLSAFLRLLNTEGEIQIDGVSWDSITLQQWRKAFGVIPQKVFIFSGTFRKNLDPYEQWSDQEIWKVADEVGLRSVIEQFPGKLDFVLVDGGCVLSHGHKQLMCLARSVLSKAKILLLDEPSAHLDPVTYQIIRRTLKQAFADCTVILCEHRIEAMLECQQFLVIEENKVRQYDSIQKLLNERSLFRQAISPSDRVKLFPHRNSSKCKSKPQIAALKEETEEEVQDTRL

| Molecule | EC50 | Maximum % activity |
| --- | --- | --- |
| 3-[(2R,4R)-4-{[(2R)-6-chloro-2-methyl-3,4-dihydro-2H-1-benzopyran-2-carbonyl]amino}-7-methoxy-3,4-dihydro-2H-1-benzopyran-2-yl]benzoic acid [Example 65] | 2140 nM | 27.0% |
| 3-{(2R,4R)-4-[2-(2H-1,3-benzodioxol-5-yl)-2-methylpropanamido]-7-methoxy-3,4-dihydro-2H-1-benzopyran-2-yl}benzoic acid [Example 38] | 160 nM | 34.4% |
| 4-[(2R,4R)-4-(2-ethyl-2-phenylbutanamido)-7-methoxy-3,4-dihydro-2H-1-benzopyran-2-yl]benzoic acid [Example 79] | > 20000 nM | −0.3% |
| COc1ccc2c(c1)O[C@@H](c1ccc(C(=O)O)cc1)C[C@H]2NC(=O)C(C)(C)c1ccc2c(c1)OC(F)(F)O2 [Example 1, 4-{(2R,4R)-4-[2-(2,2-difluoro-2H-1,3-benzodioxol-5-yl)-2-methylpropanamido]-7-methoxy-3,4-dihydro-2H-1-benzopyran-2-yl}benzoic acid] | 550 nM | 110.0% |
| COc1ccc2c(c1)O[C@@H](c1ccc(C(=O)O)cc1)C[C@H]2NC(=O)C1(c2ccc(Cl)c(Cl)c2)CC1 [Example 2, 4-[(2R,4R)-4-{[1-(3,4-dichlorophenyl)cyclopropane-1-carbonyl]amino}-7-methoxy-3,4-dihydro-2H-1-benzopyran-2-yl]benzoic acid] | 150 nM | 95.0% |
| COc1ccc2c(c1)O[C@@H](c1ccc(C(=O)O)cc1)C[C@H]2NC(=O)C1(c2ccc(OC(F)(F)F)cc2)CC1 [Example 3, 4-[(2R,4R)-7-methoxy-4-({1-[4-(trifluoromethoxy)phenyl]cyclopropane-1-carbonyl}amino)-3,4-dihydro-2H-1-benzopyran-2-yl]benzoic acid] | 1940 nM | 106.0% |
| COc1ccc2c(c1)O[C@@H](c1ccc(C(=O)O)cc1)C[C@H]2NC(=O)C1(c2ccc(Br)cc2)CC1 [Example 4, 4-[(2R,4R)-4-{[1-(4-bromophenyl)cyclopropane-1-carbonyl]amino}-7-methoxy-3,4-dihydro-2H-1-benzopyran-2-yl]benzoic acid] | 260 nM | 94.2% |
| COc1ccc2c(c1)O[C@@H](c1ccc(C(=O)O)cc1)C[C@H]2NC(=O)C1(c2ccc(C(F)(F)F)cc2)CC1 [Example 5, 4-[(2R,4R)-7-methoxy-4-({1-[4-(trifluoromethyl)phenyl]cyclopropane-1-carbonyl}amino)-3,4-dihydro-2H-1-benzopyran-2-yl]benzoic acid] | 210 nM | 120.0% |
| COc1ccc2c(c1)O[C@@H](c1ccc(C(=O)O)cc1)C[C@H]2NC(=O)C1(c2ccc(C)cc2)CC1 [Example 6, 4-[(2R,4R)-7-methoxy-4-{[1-(4-methylphenyl)cyclopropane-1-carbonyl]amino}-3,4-dihydro-2H-1-benzopyran-2-yl]benzoic acid] | 90 nM | 95.9% |
| COc1ccc2c(c1)O[C@@H](c1ccc(C(=O)O)cc1)C[C@H]2NC(=O)C1(C)CCc2cc(C)ccc21 (stereo partly drawn) [Example 7, 4-{(2R,4R)-4-[(1,5-dimethyl-2,3-dihydro-1H-indene-1-carbonyl)amino]-7-methoxy-3,4-dihydro-2H-1-benzopyran-2-yl}benzoic acid] | 160 nM | 90.1% |

Continued, values first:

| EC50 | Maximum % activity | Molecule |
| --- | --- | --- |
| 1100 nM | 32.0% | COc1ccc2c(c1)O[C@@H](c1ccc(C(=O)O)cc1)C[C@H]2NC(=O)C1(c2ccccc2)CC1(F)F (mixture of isomers) [Example 105, 4-{(2R,4R)-4-[(2,2-difluoro-1-phenylcyclopropane-1-carbonyl)amino]-7-methoxy-3,4-dihydro-2H-1-benzopyran-2-yl}benzoic acid] |
| 450 nM | 80.8% | COC(=O)c1cccc([C@H]2C[C@@H](NC(=O)C3(C)CCc4cc(C)ccc43)c3ccc(OC)cc3O2)c1 (mixture of isomers) [Example 123, methyl 3-{(2R,4R)-4-[(1,5-dimethyl-2,3-dihydro-1H-indene-1-carbonyl)amino]-7-methoxy-3,4-dihydro-2H-1-benzopyran-2-yl}benzoate] |
| 180 nM | 95.5% | COc1ccc2c(c1)O[C@@H](c1ccc(C(=O)O)cc1)C[C@H]2NC(=O)[C@@]1(C)CCc2cc(C)ccc21 (single isomer, unassigned) [Example 9] |
| 630 nM | 121.5% | COC(=O)[C@H]1CC[C@@H]([C@H]2C[C@@H](NC(=O)C3(c4ccc5c(c4)OC(F)(F)O5)CC3)c3ccc(OC(F)F)cc3O2)CC1 (single isomer, unassigned) [Example 14D] |
| 200 nM | 125.0% | COC(=O)[C@H]1CC[C@H]([C@H]2C[C@@H](NC(=O)C3(c4ccc5c(c4)OC(F)(F)O5)CC3)c3ccc(OC(F)F)cc3O2)CC1 (single isomer, unassigned) [Example 14E] |
| 440 nM | 70.7% | COc1ccc2c(c1)O[C@@H](c1cccc(C(=O)O)c1)C[C@H]2NC(=O)[C@]1(C)CCc2cc(C)ccc21 (single isomer, unassigned) [Example 125] |
| 650 nM | 72.1% | COc1ccc2c(c1)O[C@@H](c1ccc(C(=O)O)cc1)C[C@H]2NC(=O)[C@]1(C)CCc2cc(C)ccc21 (single isomer, unassigned) [Example 126] |
| 290 nM | 119.0% | CCOC(=O)[C@H]1CC[C@H]([C@H]2C[C@@H](NC(=O)C3(c4ccc5c(c4)OC(F)(F)O5)CC3)c3ccc(OC)cc3O2)CC1 [Example 10, ethyl trans-4-[(2R,4R)-4-{[1-(2,2-difluoro-2H-1,3-benzodioxol-5-yl)cyclopropane-1-carbonyl]amino}-7-methoxy-3,4-dihydro-2H-1-benzopyran-2-yl]cyclohexane-1-carboxylate] |
| 70 nM | 135.0% | CCOC(=O)[C@H]1CC[C@H]([C@H]2C[C@@H](NC(=O)C3(c4ccc5c(c4)OC(F)(F)O5)CC3)c3ccc(OC(F)(F)F)cc3O2)CC1 [Example 12, ethyl trans-4-[(2R,4R)-4-{[1-(2,2-difluoro-2H-1,3-benzodioxol-5-yl)cyclopropane-1-carbonyl]amino}-7-(trifluoromethoxy)-3,4-dihydro-2H-1-benzopyran-2-yl]cyclohexane-1-carboxylate] |
| > 20000 nM | 4.0% | COc1ccc2c(c1)OC(c1ccc(OC)c(OC)c1)CC2NC(=O)C1(c2ccccc2)CC(F)(F)C1 (stereo not shown) [Example 16, N-[2-(3,4-dimethoxyphenyl)-7-methoxy-3,4-dihydro-2H-1-benzopyran-4-yl]-3,3-difluoro-1-phenylcyclobutane-1-carboxamide] |
| 3320 nM | 27.6% | COc1ccc2c(c1)OC(c1ccc(OC)c(OC)c1)CC2NC(=O)C1(c2ccc(F)c(F)c2)CCC1 (stereo not shown) [Example 17, 1-(3,4-difluorophenyl)-N-[2-(3,4-dimethoxyphenyl)-7-methoxy-3,4-dihydro-2H-1-benzopyran-4-yl]cyclobutane-1-carboxamide] |
| > 20000 nM | 5.5% | COc1ccc2c(c1)OC(c1ccc(OC)c(OC)c1)CC2NC(=O)C(C)(C)Oc1ccc(Cl)cc1 (stereo not shown) [Example 18, 2-(4-chlorophenoxy)-N-[2-(3,4-dimethoxyphenyl)-7-methoxy-3,4-dihydro-2H-1-benzopyran-4-yl]-2-methylpropanamide] |
| 1270 nM | 40.8% | COc1ccc2c(c1)OC(c1ccc(OC)c(OC)c1)CC2NC(=O)C1(c2cccc(F)c2)CC1 (stereo not shown) [Example 19, N-[2-(3,4-dimethoxyphenyl)-7-methoxy-3,4-dihydro-2H-1-benzopyran-4-yl]-1-(3-fluorophenyl)cyclopropane-1-carb oxamide] |
